Assay results as given in patent US4812409A, “Hydrolyzable fluorescent substrates and analytical determinations using same” (Eastman Kodak Company, priority 1986, dated 1989).

How the values were obtained:
[1] = tested on: carboxy esterase (Esterase, Type II); experiment: Determination of esterase activity in a dry analytical element; type: biochemical; conditions: filter paper element; 10 μl of 10 μg/ml esterase, pH 7.5; 1 minute incubation at 37° C.
Experimental: A strip of Whatman No. 2 filter paper (VWR Scientific Co., Rochester, N.Y., U.S.A.) was immersed in a solution of the substrate in methanol (3 mg in 0.5 ml). The paper was then allowed to dry at 37° C. for two hours.
A carboxy esterase (Esterase, Type II, 100 I.U./mg protein from Sigma Chemical Co., St. Louis, Mo., U.S.A.) was dissolved in 0.05 molar potassium phosphate buffer (pH 7.5), 10 μg/ml of buffer. A sample (10 μl) of this solution was applied to the filter paper and the sample came into contact with the substrate therein. A Control solution containing only buffer was applied to a separate area of the element. After 1 minute incubation at 37° C., the element was visually examined.

[2] = tested on: white blood cells; experiment: Determination of esterase activity in white blood cells; type: cell-based; conditions: pH 7.5, ex 540 nm, em 620 nm
Experimental: Leucocyte-rich layers (buffy coats) were purified from blood of healthy adult donors (taken in ACD tubes*) by adding 1.5 ml of Dextran T70 (6% in balanced salt solution), purchased from Pharmacia Fine Chemical (Piscataway, N.J., U.S.A.), to a 10 ml tube of blood. The tubes were allowed to set for one hour, then the plasma layer was transferred to sterile 15 ml centrifuge tubes, and the tubes were filled up to 7.5 ml with PBS solution (8.5 g sodium chloride in 0.05 molar potassium phosphate buffer, pH 7.5). The tubes were centrifuged at 1000 RPM for 10 minutes. The resulting cell pellet was resuspended in 10 ml lysing solution [0.83 g ammonium chloride, 0.1 g sodium bicarbonate and 0.003 g (ethylenedinitrilo)tetraacetic acid disodium salt in 100 ml of water, pH 7.2], and the tubes were allowed to set until the solution cleared. The tubes were again centrifuged, and the pellet was washed and resuspended in PBS. Cells were counted and adjusted to about 10^6 cells/ml.
Three milliliters of various concentrations of white blood cells in potassium phosphate buffer (0.05 molar, pH 7.5) were mixed with 10 μl of the substrate of Example 3 ([…]), and the relative fluorescence was measured at an excitation wavelength of 540 nm and a maximum emission wavelength of 620 nm.

[3] = tested on: diacetinase; experiment: Solution determination of an esterase enzyme; type: biochemical; conditions: pH 7.5, 25° C.; for Relative Fluorescence, Test Cell: ex 540 nm, em 620 nm
Experimental: A buffered solution of the substrate was prepared as follows. The substrate in N,N-dimethylformamide (16 mg/ml solvent) was added to 500 μl TRITON X-100 surfactant, and the resulting solution was added slowly to 25 ml potassium phosphate buffer (0.05 molar, pH 7.5) with stirring. Three milliliters of the buffered solution containing the substrate was placed in each of two quartz cells. To one cell was added 10 μl of a solution containing diacetinase (0.218 I.U. diacetinase per μl of potassium phosphate buffer, pH 7.5). The second cell was the Control. The relative fluorescence of each cell solution was measured at various times with a commercially available Perkin-Elmer fluorometer (excitation, 540 nm, maximum emission, 620 nm) at pH 7.5 and 25° C.

CC(=O)Oc1ccc2c3c(cccc13)C(=O)C=C2 [Example 3]
Colour of element area contacted with esterase enzyme (visual examination) [1]: bright orange
Relative Fluorescence ([2]; Sample 2, Cell Conc/μl 4.92 × 10^3, 0 Min): 28.2
Relative Fluorescence ([2]; Sample 2, Cell Conc/μl 4.92 × 10^3, 10 Min): 37.1
Relative Fluorescence ([2]; Sample 2, Cell Conc/μl 4.92 × 10^3, 15 Min): 42.6
Relative Fluorescence ([2]; Sample 2, Cell Conc/μl 4.92 × 10^3, 30 Min): 60.4
Relative Fluorescence ([2]; Sample 3, Cell Conc/μl 4.92 × 10^4, 0 Min): 23.2
Relative Fluorescence ([2]; Sample 3, Cell Conc/μl 4.92 × 10^4, 10 Min): 41.7
Relative Fluorescence ([2]; Sample 3, Cell Conc/μl 4.92 × 10^4, 15 Min): 48.8
Relative Fluorescence ([2]; Sample 3, Cell Conc/μl 4.92 × 10^4, 30 Min): 70.3
Relative Fluorescence ([2]; Sample 4, Cell Conc/μl 4.92 × 10^5, 0 Min): 25.6
Relative Fluorescence ([2]; Sample 4, Cell Conc/μl 4.92 × 10^5, 10 Min): 69.0
Relative Fluorescence ([2]; Sample 4, Cell Conc/μl 4.92 × 10^5, 15 Min): 85.0
Relative Fluorescence ([2]; Sample 4, Cell Conc/μl 4.92 × 10^5, 30 Min): 124.0
Relative Fluorescence, Test Cell ([3]; 0 min): 134
Relative Fluorescence, Test Cell ([3]; 0.5 min): 142
Relative Fluorescence, Test Cell ([3]; 1.0 min): 150
Relative Fluorescence, Test Cell ([3]; 3.0 min): 161
Relative Fluorescence, Test Cell ([3]; 5.0 min): 175
Relative Fluorescence, Test Cell ([3]; 7.0 min): 202
Relative Fluorescence, Test Cell ([3]; 10.0 min): 238
Relative Fluorescence, Test Cell ([3]; 15.0 min): 266
Generation of fluorescence in the cell containing the esterase enzyme (in words) [3]: rapid generation of fluorescence
